Experimental data: the supplement of paper PMC12669032

Tests used:
Assay in all cases: growth AUC relative to DMSO control (fraction); higher = more growth (less inhibition)
Conditions in all cases: 24 h
Bacteroides uniformis = tested on: Bacteroides uniformis
Experimental: (§1)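 Validation screen: 11 independently purchased pesticides tested on 8 gut bacterial strains at 2.5–320 µM in mGAM, anaerobic, 37 °C, 24 h. Growth AUC normalised to DMSO controls, mean of 3 independent experiments.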

Clostridium difficile = tested on: Clostridium difficile
Experimental: as §1

Escherichia coli IAI1 = tested on: Escherichia coli IAI1
Experimental: as §1

Eubacterium rectale = tested on: Eubacterium rectale
Experimental: as §1

Lactobacillus gasseri = tested on: Lactobacillus gasseri
Experimental: as §1

[1] = tested on: Parabacteroides distasonis
Experimental: as §1

Roseburia intestinalis = tested on: Roseburia intestinalis
Experimental: as §1

Streptococcus salivarius = tested on: Streptococcus salivarius
Experimental: as §1

O=C(Oc1ccccc1)n1c(C(F)(F)F)nc2cc(Cl)c(Cl)cc21 [FENAZAFLOR]
growth AUC
Conditions | Bacteroides uniformis | Clostridium difficile | Escherichia coli IAI1 | Eubacterium rectale | Lactobacillus gasseri | Roseburia intestinalis | Streptococcus salivarius | [1]
2.5 µM | 0.972 | 0.824 | 0.97 | 0.987 | 1.06 | 1.05 | 1.07 | 0.939
5 µM | 0.914 | 0.854 | 0.837 | 0.875 | 0.99 | 0.968 | 0.876 | 0.6
10 µM | 0.686 | 0.595 | 0.679 | 0.642 | 0.837 | 0.887 | 0.658 | 0.314
20 µM | 0.492 | 0.705 | 0.617 | 0.407 | 0.448 | 0.582 | 0.513 | 0.174
40 µM | 0.171 | 0.00756 | 0.383 | 0.255 | 0.168 | 0.22 | 0.0266 | 0.0387
80 µM | 0.00285 | 0.0273 | 0.00144 | 0.106 | 0.0839 | 0.0682 | 0.0113 | 0.0173
160 µM | 0.00332 | 0.0114 | 0.00384 | 0.0493 | 0.0514 | 0.0676 | 0.00976 | 0.0144
320 µM | 0.0184 | 0.0253 | 0.0222 | 0.106 | 0.0326 | 0.0375 | 0.0373 | 0.0614

C=CCOC(Cn1ccnc1)c1ccc(Cl)cc1Cl.O=S(=O)(O)O (stereo unspecified) [IMAZALIL SULFATE]
growth AUC
Conditions | Bacteroides uniformis | Clostridium difficile | Escherichia coli IAI1 | Eubacterium rectale | Lactobacillus gasseri | Roseburia intestinalis | Streptococcus salivarius | [1]
2.5 µM | 1.04 | 1.02 | 0.998 | 0.622 | 1.07 | 0.943 | 1.05 | 1.02
5 µM | 1 | 0.962 | 0.975 | 0.322 | 0.958 | 0.906 | 1.01 | 0.948
10 µM | 1.01 | 0.944 | 0.956 | 0.0607 | 0.976 | 0.861 | 0.963 | 0.856
20 µM | 0.971 | 1.01 | 0.96 | 0.0382 | 0.92 | 0.459 | 0.978 | 0.922
40 µM | 0.976 | 0.915 | 0.942 | 0.0278 | 0.946 | 0.0225 | 0.961 | 0.732
80 µM | 0.928 | 0.797 | 0.961 | 0.014 | 0.881 | 0.0276 | 0.944 | 0.587
160 µM | 0.836 | 0.515 | 0.879 | 0.0363 | 0.788 | 0.0196 | 0.999 | 0.145
320 µM | 0.413 | 0.219 | 0.776 | 0.0159 | 0.414 | 0.0118 | 0.705 | 0.0186

COC(=O)N(OC)c1ccccc1COc1ccn(-c2ccc(Cl)cc2)n1 [PYRACLOSTROBIN]
growth AUC
Conditions | Bacteroides uniformis | Clostridium difficile | Escherichia coli IAI1 | Eubacterium rectale | Lactobacillus gasseri | Roseburia intestinalis | Streptococcus salivarius | [1]
2.5 µM | 1.01 | 1.03 | 1.02 | 1.17 | 1.06 | 0.955 | 1.11 | 0.922
5 µM | 0.994 | 1.01 | 1.02 | 1.12 | 1.01 | 0.923 | 1.09 | 0.798
10 µM | 0.955 | 1 | 1.01 | 1.18 | 0.997 | 0.957 | 1.07 | 0.705
20 µM | 0.988 | 1.01 | 1.01 | 1.16 | 0.955 | 0.859 | 1.12 | 0.626
40 µM | 0.926 | 1.03 | 1.01 | 1.18 | 0.989 | 0.975 | 1.08 | 0.401
80 µM | 0.914 | 1.04 | 0.999 | 1.13 | 0.914 | 0.919 | 1.02 | 0.26
